Measured values from US20140275711A1, “1-(Arylmethyl)-5,6,7,8-tetrahydroquinazolline-2,4-diones and Analogs and the Use Thereof” (Impact Therapeutics, Inc., priority 2011, published 2014).
Read-outs that look alike come from different tables or passages of the source.

Assays:
[1] = system: SW620 human colorectal cancer cells; assay: Potentiation of the growth inhibiting activity of MMS, MTT based cell viability assay; conditions: read-out: Compounds potentiate the growth inhibiting activity of MMS (IC50)
Description: The synergistic potentiation effect of PARP inhibitors on the growth inhibiting activity of DNA damaging anticancer drugs such as methyl methanesulphonate (MIMS) were measured with SW620 human colorectal cancer cells (Shanghai Cancer Institute) using a MTT based cell viability assay. SW620 cells were grown and maintained in RPMI1640 (Gibco) medium supplemented with 10% FBS (Hyclone). In the first day of experiment, 4000 cells were seeded to each well of a 96-well cell culture plate and incubated at 37° C. and 5% CO2 in a cell culture incubator overnight. In the next day, the cell culture medium was removed. […] The serial dilutions of the reference compounds and the compounds to be tested were made with a 1:3 and 1:10 fashion in DMSO. The 10-fold concentrated solutions of these compounds were made by mixing 10 μl of the serial dilutions in DMSO with 90 μl fresh medium. The final concentration of DMSO in the medium was 1%. The cells were incubated at 37° C. in 5% CO2 cell culture incubator for additional 5 days (120 hours). Afterwards, the 96-well cell culture plate was taken out and 20 μl of MTT solution was added to each well and incubated at 37° C. for 4 h. The medium was removed and 100 μl DMSO was added to each well. The 96-well cell culture plates were shaked adequately for 10 min and readed in a Varioskan Flash plate reader (Thermo Fisher Scientific) at 520 and 690 nm. The data were analyzed by Prism 5 software (GraphPad). The obtained 520 nm absorbance readings substracting corresponding 690 nm reading were analyzed and plotted against the Log scale of the compound concentrations.

[2] = system: Human breast cancer cell line T47D; assay: Potentiation of MMS induced apoptosis, cell based caspase-3 activity assay; conditions: read-out: Compounds potentiate the apoptosis inducing activity of MMS (EC50);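 note: Caspase-3 activity in cell lysates measured by fluorescence (RFU), EC50 fitted from sigmoidal curve of signal versus log compound concentration in presence of MMS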
Description: Human breast cancer cell line T47D (Nanjing KeyGEN Biotech. CO., LTD.) was used to determine the potentiation effect of PARP-1 inhibitors on the apoptosis inducing activity of DNA damaging anticancer drugs such as MMS. Intracellular caspase-3 activity was used to measure cell apoptosis. Briefly, T47D cells were grown in DMEM/F12 cell culture medium (Hyclone) supplemented with 0.2 U/ml insulin (Genview) and 10% FBS (Hyclone). A day before experiment, 20000 of T47D cells were seeded to each well of a 96-well cell culture plate and maintained at 37° C. and 5% CO2 in a cell culture incubator overnight. On the day of experiment, cell culture medium was removed. […] The serial dilutions of the compounds to be tested and the reference compounds were made in a 1:3 and 1:10 fashion in DMSO. The 10-fold compound solutions were made by mixing 10 μl DMSO serial dilution solutions with 90 μl fresh growth medium. Twenty four hours later, the cells in the 96-well plates were centrifuged at 1000 g for 5 min and the supernatants were removed. 50 μl lysis buffer (10 mM Tris, pH 7.5, 0.1M NaCl, 1 mM EDTA, 0.01% Triton X-100) was added to each well and the plates were shaked horizontally for 30 min at 4° C. After centrifugation at 1000 g at 4° C. for 10 min, 20 μl of supernatant was transferred from each well to a corresponding well in a 384-well black plate. […] The plates were shaked to uniformly mix the wells and incubated at 37° C. for 3 h. […] The caspase-3 activity induced by the compounds was expressed as a relative fluorescence unit (RFU). The obtained fluorescence readings were analyzed using a commercial graphic software (GraphPad Prism 5) and plotted against the Log value of the compound concentrations. The EC50 values were obtained by fitting the data points with the equation of Y (fluorescence reading)=minimal fluorescence reading+(maximal fluorescence reading−minimal fluorescence reading)/(1+10̂(LogEC50−LogC)), where C is the concentration of the testing compound. The EC50 values were obtained by fitting the data points with S-shaped dose response curve equation (GraphPad Software, Inc).

[3] = system: BRCA-2 deficient CAPAN-1 human pancreatic cancer cells; assay: Cell growth inhibition of BRCA-2 deficient CAPAN-1 cells, MTT based cell viability assay; conditions: Homo sapiens, CAPAN-1, 240 h, read-out: Growth inhibition of CAPAN-1 cells by compounds (IC50)
Description: BRCA-2 deficient CAPAN-1 human pancreatic cancer cells were used to test the growth inhibiting activity of substituted 1-(arylmethyl)-5,6,7,8-tetrahydroquinazoline-2,4(1H,3H)-diones. Briefly, CAPAN-1 cells are grown and maintained in IMEM medium supplemented with 20% FBS. The assay takes 10 days to finish. On day 1, 6000 CAPAN-1 cells are seeded to each well of a 96-well plate. The cells are incubated at 37° C. in a CO2 cell culture incubator overnight. […] Ten-fold compound solutions were made by mixing 10 μl DMSO serial dilution solutions with 90 μl fresh growth medium. The cell culture medium was removed and 180 μl fresh media with FBS and 20 μl of compound solutions were added to each well. The final concentration of DMSO was 1%. Cells were then returned to the CO2 cell culture incubator and incubated at 37° C. for two days (day 3 and day 4). On day 5, the same procedure as what was done on day 2 was repeated. Cell culture medium was removed and fresh medium containing serial dilutions of compounds or reference compounds were added. Cells were returned to the CO2 cell culture incubator and incubated for two more days. On day 8, same procedure was repeated again and fresh medium containing the testing compounds or reference compounds were added and incubated for an additional 2 days. On day 10, 20 μl of MTT reagent (5 mg/ml) was added to each well of the cell culture plate and incubated for 4 h. The cell culture media was removed and 100 μl DMSO was added to each well. The 96-well cell culture plates were shaked horizontally for 10 min and readed in a Varioskan Flash plate reader (Thermo Fisher Scientific) at 520 and 690 nm. The obtained 520 nm absorbance readings substracting corresponding 690 nm reading were analyzed using a commercial graphic software (GraphPad Prism 5) and plotted against the Log scale of the compound concentrations.

[4] = SW620 cells, medium containing 1.5 μg/ml MMS, 5 days (120 hours), MTT
[5] = T47D cells, 100 nM MMS, 24 hours, intracellular caspase-3 activity

Structure (SMILES) | IC50 ([1]; Homo sapiens, SW-620, 120 h) | EC50 ([2]; Homo sapiens, T47D, 24 h) | IC50 [3] | IC50 [1, 4] | EC50 [2, 5]
O=C(c1cc(Cc2n[nH]c(=O)c3ccccc23)ccc1F)N1CCN(C(=O)C2CC2)CC1 [AZD2281, olaparib, reference compound] | 46 nM | 14 nM | 1070 nM |  | 
O=C(c1cccc(Cn2c3c(c(=O)[nH]c2=O)CCCC3)c1)N1CCN(C(=O)C2CC2)CC1 [Example 6, 1-(3-(4-(Cyclopropylcarbonyl)piperazine-1-carbonyl)benzyl)-5,6,7,8-tetrahydroquinazoline-2,4(1H,3H)-dione] | 120 nM | > 1000 nM |  |  | 
O=C(c1ccccc1)N1CCN(C(=O)c2cccc(Cn3c4c(c(=O)[nH]c3=O)CCCC4)c2)CC1 [Example 10, 1-(3-(4-Benzoylpiperazine-1-carbonyl)benzyl)-5,6,7,8-tetrahydroquinazoline-2,4(1H,3H)-dione] | 36 nM | 325 nM |  |  | 
O=C(c1cccc(Cn2c3c(c(=O)[nH]c2=O)CCCC3)c1)N1CCN(C(=O)c2ccco2)CC1 [Example 13, 1-(3-(4-(Furan-2-carbonyl)piperazine-1-carbonyl)benzyl)-5,6,7,8-tetrahydroquinazoline-2,4(1H,3H)-dione] | 33 nM | 374 nM |  |  | 
CCN1CCN(C(=O)c2cc(Cn3c4c(c(=O)[nH]c3=O)CCCC4)ccc2F)CC1 [Example 31, 1-(4-Fluoro-3-(4-ethylpiperazine-1-carbonyl)benzyl)-5,6,7,8-tetrahydroquinazoline-2,4(1H,3H)-dione] | 31 nM | 295 nM |  |  | 
CC(=O)N1CCN(C(=O)c2cc(Cn3c4c(c(=O)[nH]c3=O)CCCC4)ccc2F)CC1 [Example 34, 1-(4-Fluoro-3-(4-acetylpiperazine-1-carbonyl)benzyl)-5,6,7,8-tetrahydroquinazoline-2,4(1H,3H)-dione] | 42 nM | 402 nM |  |  | 
O=C(c1cccc(Cn2c3c(c(=O)[nH]c2=O)CCC3)c1)N1CCN(c2ncccn2)CC1 [Example 45] |  |  |  | 138 nM | 402 nM
O=C(c1cc(Cn2c3c(c(=O)[nH]c2=O)CCCC3)ccc1F)N1CCC(c2ccccc2)CC1 [Example 54, 1-(4-Fluoro-3-(4-phenylpiperidine-1-carbonyl)benzyl)-5,6,7,8-tetrahydroquinazoline-2,4(1H,3H)-dione] | 107 nM | 532 nM |  |  | 
O=C(c1ccc(Cn2c3c(c(=O)[nH]c2=O)CCCC3)cc1)N1CCN(c2ncccn2)CC1 [Example 55, 1-(4-(4-(Pyrimidin-2-yl)piperazine-1-carbonyl)benzyl)-5,6,7,8-tetrahydroquinazoline-2,4(1H,3H)-dione] | > 10000 nM | > 10000 nM |  |  | 
O=C(c1ccccc1Cn1c2c(c(=O)[nH]c1=O)CCCC2)N1CCN(c2ncccn2)CC1 [Example 56, 1-(2-(4-(Pyrimidin-2-yl)piperazine-1-carbonyl)benzyl)-5,6,7,8-tetrahydroquinazoline-2,4(1H,3H)-dione] | > 10000 nM | > 10000 nM |  |  | 
CC1CCc2c(c(=O)[nH]c(=O)n2Cc2ccc(F)c(C(=O)N3CCN(c4ncccn4)CC3)c2)C1 (stereo not drawn) [Example 57, 1-(4-Fluoro-3-(4-(pyrimidin-2-yl)piperazine-1-carbonyl)benzyl)-6-methyl-5,6,7,8-tetrahydroquinazoline-2,4(1H,3H)-dione] | 221 nM | 429 nM |  |  | 
CC1CCCc2c1c(=O)[nH]c(=O)n2Cc1ccc(F)c(C(=O)N2CCN(c3ccccn3)CC2)c1 (stereo not drawn) [Example 58, 1-(4-Fluoro-3-(4-(pyridin-2-yl)piperazine-1-carbonyl)benzyl)-5-methyl-5,6,7,8-tetrahydroquinazoline-2,4(1H,3H)-dione] |  |  |  | 82 nM | 350 nM
O=C(c1cc(Cn2c3c(c(=O)[nH]c2=O)CCCCC3)ccc1F)N1CCN(c2ncccn2)CC1 [Example 59, 1-(4-Fluoro-3-(4-(pyrimidin-2-yl)piperazine-1-carbonyl)benzyl)-6,7,8,9-tetrahydro-1H-cyclohepta[d]pyrimidine-2,4(3H,5H)-dione] | 42 nM | 309 nM |  |  | 

Continued by falling IC50 ([1]; Homo sapiens, SW-620, 120 h), values first:

IC50 ([1]; Homo sapiens, SW-620, 120 h) | EC50 ([2]; Homo sapiens, T47D, 24 h) | IC50 [3] | IC50 [1, 4] | EC50 [2, 5] | Structure (SMILES)
31 nM | 72 nM |  |  |  | O=C(c1ccsc1)N1CCN(C(=O)c2cccc(Cn3c4c(c(=O)[nH]c3=O)CCCC4)c2)CC1 [Example 15, 1-(3-(4-(Thiophene-3-carbonyl)piperazine-1-carbonyl)benzyl)-5,6,7,8-tetrahydroquinazoline-2,4(1H,3H)-dione]
25 nM | 324 nM |  |  |  | O=C(c1cc(Cn2c3c(c(=O)[nH]c2=O)CCCC3)ccc1F)N1CCN(C(=O)C2CC2)CC1 [Example 19, 1-(4-Fluoro-3-(4-(cyclopropylcarbonyl)piperazine-1-carbonyl)benzyl)-5,6,7,8-tetrahydroquinazoline-2,4(1H,3H)-dione]
22 nM | 35 nM |  |  |  | O=C(c1cccc(Cn2c3c(c(=O)[nH]c2=O)CCCC3)c1)N1CCN(C(=O)C2CCC2)CC1 [Example 14, 1-(3-(4-(Cyclobutylcarbonyl)piperazine-1-carbonyl)benzyl)-5,6,7,8-tetrahydroquinazoline-2,4(1H,3H)-dione]
21 nM | 62 nM |  |  |  | O=C(c1cccc(Cn2c3c(c(=O)[nH]c2=O)CCCC3)c1)N1CCN(C(=O)c2cccs2)CC1 [Example 7, 1-(3-(4-(Thiophene-2-carbonyl)piperazine-1-carbonyl)benzyl)-5,6,7,8-tetrahydroquinazoline-2,4(1H,3H)-dione]
18 nM | 138 nM |  |  |  | CCS(=O)(=O)N1CCN(C(=O)c2cc(Cn3c4c(c(=O)[nH]c3=O)CCCC4)ccc2F)CC1 [Example 29, 1-(4-Fluoro-3-(4-ethylsulfonylpiperazine-1-carbonyl)benzyl)-5,6,7,8-tetrahydroquinazoline-2,4(1H,3H)-dione]
16 nM | 24 nM |  |  |  | O=C(c1ccc(F)c(Cn2c3c(c(=O)[nH]c2=O)CCCC3)c1)N1CCN(C(=O)c2ccco2)CC1 [Example 52, 1-(6-Fluoro-3-(4-(furan-2-carbonyl)piperazine-1-carbonyl)benzyl)-5,6,7,8-tetrahydroquinazoline-2,4(1H,3H)-dione]
15 nM | 3.5 nM | 22 nM |  |  | O=C(c1cccc(Cn2c3c(c(=O)[nH]c2=O)CCCC3)c1)N1CCN(c2ncccn2)CC1 [Example 5, 1-(3-(4-(Pyrimidin-2-yl)piperazine-1-carbonyl)benzyl)-5,6,7,8-tetrahydroquinazoline-2,4(1H,3H)-dione]
14 nM | 48 nM |  |  |  | COc1ccc(C(=O)N2CCN(C(=O)c3cc(Cn4c5c(c(=O)[nH]c4=O)CCCC5)ccc3F)CC2)cc1 [Example 37, 1-(4-Fluoro-3-(4-(4-methoxybenzoyl)piperazine-1-carbonyl)benzyl)-5,6,7,8-tetrahydroquinazoline-2,4(1H,3H)-dione]
13 nM | 43 nM |  |  |  | O=C(c1cccc(Cn2c3c(c(=O)[nH]c2=O)CCCC3)c1)N1CCN(c2cnccn2)CC1 [Example 16, 1-(3-(4-(Pyrazin-2-yl)piperazine-1-carbonyl)benzyl)-5,6,7,8-tetrahydroquinazoline-2,4(1H,3H)-dione]
13 nM | 26 nM |  |  |  | O=C(c1ccccc1)N1CCN(C(=O)c2ccc(F)c(Cn3c4c(c(=O)[nH]c3=O)CCCC4)c2)CC1 [Example 48, 1-(6-Fluoro-3-(4-benzoylpiperazine-1-carbonyl)benzyl)-5,6,7,8-tetrahydroquinazoline-2,4(1H,3H)-dione]
12 nM | 91 nM | 107 nM |  |  | O=C(c1cccc(Cn2c3c(c(=O)[nH]c2=O)CCCC3)c1)N1CCN(C(=O)C2CCCC2)CC1 [Example 9, 1-(3-(4-(Cyclopentylcarbonyl)piperazine-1-carbonyl)benzyl)-5,6,7,8-tetrahydroquinazoline-2,4(1H,3H)-dione]
11 nM | 20 nM |  |  |  | O=C(c1cccc(Cn2c3c(c(=O)[nH]c2=O)CCCC3)c1)N1CCN(c2nccs2)CC1 [Example 8, 1-(3-(4-(Thiazol-2-yl)piperazine-1-carbonyl)benzyl)-5,6,7,8-tetrahydroquinazoline-2,4(1H,3H)-dione]
9.7 nM | 62 nM |  |  |  | O=C(c1cccc(Cn2c3c(c(=O)[nH]c2=O)CCCC3)c1)N1CCN(C(=O)C2CCCCC2)CC1 [Example 12, 1-(3-(4-(Cyclohexylcarbonyl)piperazine-1-carbonyl)benzyl)-5,6,7,8-tetrahydroquinazoline-2,4(1H,3H)-dione]
9.5 nM | 41 nM | 35 nM |  |  | O=C(c1ccccc1)N1CCN(C(=O)c2cc(Cn3c4c(c(=O)[nH]c3=O)CCCC4)ccc2F)CC1 [Example 18, 1-(4-Fluoro-3-(4-benzoylpiperazine-1-carbonyl)benzyl)-5,6,7,8-tetrahydroquinazoline-2,4(1H,3H)-dione]
6.9 nM | 31 nM | 32 nM |  |  | O=C(c1cccc(Cn2c3c(c(=O)[nH]c2=O)CCCC3)c1)N1CCN(c2ccccn2)CC1 [Example 11, 1-(3-(4-(Pyridin-2-yl)piperazine-1-carbonyl)benzyl)-5,6,7,8-tetrahydroquinazoline-2,4(1H,3H)-dione]
6.3 nM | 27 nM |  |  |  | O=C(c1ccc(F)cc1)N1CCN(C(=O)c2cc(Cn3c4c(c(=O)[nH]c3=O)CCCC4)ccc2F)CC1 [Example 32, 1-(4-Fluoro-3-(4-(4-fluorobenzoyl)piperazine-1-carbonyl)benzyl)-5,6,7,8-tetrahydroquinazoline-2,4(1H,3H)-dione]
1.3 nM | 2.8 nM | 101 nM |  |  | O=C(c1cccs1)N1CCN(C(=O)c2cc(Cn3c4c(c(=O)[nH]c3=O)CCCC4)ccc2F)CC1 [Example 21, 1-(4-Fluoro-3-(4-(thiophene-2-carbonyl)piperazine-1-carbonyl)benzyl)-5,6,7,8-tetrahydroquinazoline-2,4(1H,3H)-dione]
